Experimental data from patent publication US20250206730A1 (AUTOTELIC BIO INC., priority 2022, published 2025).

Tests used:
TGF-β signaling = test: Assay for evaluating cellular inhibition of TGF-β signaling, 4T1 (SBE-luc2P) luciferase reporter; type: cell-based; settings: Mus musculus, 4T1, 4T1 (SBE-luc2P) transient pool, 0.2% FBS, 2 h pre-treatment, TGF-β1 2 ng/mL 24 h; read-out: IC50 4T1 Cell
Procedure, shortened: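 Luminescence from SMAD-binding-element luciferase was measured after 24 h of 2 ng/mL TGF-β1 at 37 °C, following 2 h compound pre-treatment. HEK293 stable reporter cells were used at 2.5×10^4/well in 0.5% FBS (~80% confluent); the 4T1 SBE-luc2P transient pool at 6×10^3/well in 0.2% FBS (~60% confluent).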

ALK5 kinase = biological target: T1, ALK5 kinase (Homo sapiens, UniProt P36897); test: LanthaScreen Eu Kinase Binding Assay; settings: Kinase Tracer 178, Eu-anti-GST Antibody, read-out: IC50 Enzyme
T1 sequence (P36897 34-503): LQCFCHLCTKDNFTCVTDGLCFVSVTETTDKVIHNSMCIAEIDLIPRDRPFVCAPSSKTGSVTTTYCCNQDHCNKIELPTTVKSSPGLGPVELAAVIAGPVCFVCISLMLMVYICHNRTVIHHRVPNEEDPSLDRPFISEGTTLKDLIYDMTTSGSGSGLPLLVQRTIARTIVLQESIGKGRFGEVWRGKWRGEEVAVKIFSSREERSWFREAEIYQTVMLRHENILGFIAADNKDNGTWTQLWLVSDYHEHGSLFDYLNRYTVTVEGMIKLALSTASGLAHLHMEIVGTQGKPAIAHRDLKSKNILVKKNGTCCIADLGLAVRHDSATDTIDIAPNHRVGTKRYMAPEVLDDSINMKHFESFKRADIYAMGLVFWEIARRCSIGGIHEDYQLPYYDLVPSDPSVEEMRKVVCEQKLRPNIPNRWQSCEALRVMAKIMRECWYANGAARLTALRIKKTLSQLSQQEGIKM
Procedure, shortened: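 Tracer-displacement TR-FRET: after 30 min RT compound–kinase preincubation, Eu-labelled anti-GST antibody plus Kinase Tracer 178 were incubated 60 min at RT. Binding was read as a lower 665 nm/615 nm emission ratio (excitation 340 nm).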

| SMILES | IC50 (TGF-β signaling) [nM] | IC50 (ALK5 kinase) [nM] |
| --- | --- | --- |
| CCc1nc(-c2cccc(C)n2)c(Oc2ccnc(Nc3cccc(C(=O)NC)c3)c2)s1 [A-259, 3-((4-((2-Ethyl-4-(6-methylpyridin-2-yl)thiazol-5-yl)oxy)pyridin-2-yl)amino)-N-methylbenzamide] | < 100 | < 100 |
| CNC(=O)c1ccc(Nc2cc(Oc3sc(C(F)(F)F)nc3-c3ccccc3)ccn2)cc1 [A-148, N-Methyl-4-((4-((4-phenyl-2-(trifluoromethyl)thiazol-5-yl)oxy)pyridin-2-yl)amino)benzamide] | < 100 | < 100 |
| Cc1nc(-c2ccccc2)c(Oc2ccnc(Nc3cccc(CCC#N)c3)c2)s1 [A-113, 3-(3-((4-((2-Methyl-4-phenylthiazol-5-yl)oxy)pyridin-2-yl)amino)phenyl)propanenitrile] | < 100 | < 100 |
| CCc1nc(-c2ccccc2)c(Oc2ccnc(Nc3cccc(C(C)(C)O)c3)c2)s1 [A-182, 2-(3-((4-((2-Ethyl-4-phenylthiazol-5-yl)oxy)pyridin-2-yl)amino)phenyl)propan-2-ol] | > 100 | < 100 |
| CNc1nc(-c2ccccc2)c(Oc2ccnc(Nc3cccc(S(N)(=O)=O)c3)c2)s1 [A-51, 3-((4-((2-(Methylamino)-4-phenylthiazol-5-yl)oxy)pyridin-2-yl)amino)benzenesulfonamide] | < 100 | < 100 |
| O=C(O)c1cccc(Nc2cc(Oc3sc(Br)nc3-c3ccccc3)ccn2)c1 [A-171, 3-((4-((2-Bromo-4-phenylthiazol-5-yl)oxy)pyridin-2-yl)amino)benzoic acid] | > 100 | < 100 |
| Cc1nc(-c2ccccc2)c(Oc2ccnc(Nc3cccc(CCc4nn[nH]n4)c3)c2)s1 [A-114, N-(3-(2-(2H-Tetrazol-5-yl)ethyl)phenyl)-4-((2-methyl-4-phenylthiazol-5-yl)oxy)pyridin-2-amine] | < 100 | < 100 |
| CN(C)c1nc(-c2ccccc2)c(Oc2ccnc(Nc3ccc(C(=O)O)cc3)c2)s1 [A-168, 4-((4-((2-(Dimethylamino)-4-phenylthiazol-5-yl)oxy)pyridin-2-yl)amino)benzoic acid] | < 100 | < 100 |
| Cc1cccc(-c2nc(N)sc2Oc2ccnc(Nc3cccc(C(=O)O)c3)c2)n1 [A-249, 3-((4-((2-Amino-4-(6-methylpyridin-2-yl)thiazol-5-yl)oxy)pyridin-2-yl)amino)benzoic acid] | < 100 | < 100 |
| CCc1nc(-c2cccc(C)n2)c(Oc2ccnc(Nc3ccc(C(=O)O)cn3)c2)s1 [A-252, 6-((4-((2-Ethyl-4-(6-methylpyridin-2-yl)thiazol-5-yl)oxy)pyridin-2-yl)amino)nicotinic acid] | < 100 | < 100 |
| Cc1nc(-c2ccccc2)c(Oc2ccnc(Nc3cccc(S(C)(=O)=O)c3)c2)s1 [A-70, 4-((2-Methyl-4-phenylthiazol-5-yl)oxy)-N-(3-(methylsulfonyl)phenyl)pyridin-2-amine] | < 100 | < 100 |
| CNC(=O)c1ccc(Nc2cc(Oc3sc(N(C)C)nc3-c3ccccc3)ccn2)nc1 [A-166, 6-((4-((2-(Dimethylamino)-4-phenylthiazol-5-yl)oxy)pyridin-2-yl)amino)-N-methylnicotinamide] | < 100 | < 100 |
| COc1nc(-c2ccccc2)c(Oc2ccnc(Nc3cccc(S(N)(=O)=O)c3)c2)s1 [A-142, 3-((4-((2-Methoxy-4-phenylthiazol-5-yl)oxy)pyridin-2-yl)amino)benzenesulfonamide] | > 100 | < 100 |
| CNC(=O)c1ccc(Nc2cc(Oc3sc(C(F)(F)F)nc3-c3ccccc3)ccn2)nc1 [A-150, N-Methyl-6-((4-((4-phenyl-2-(trifluoromethyl)thiazol-5-yl)oxy)pyridin-2-yl)amino)nicotinamide] | < 100 | < 100 |
| CN(C)c1nc(-c2ccccc2)c(Oc2ccnc(Nc3ccc(S(N)(=O)=O)cc3)c2)s1 [A-156, 4-((4-((2-(Dimethylamino)-4-phenylthiazol-5-yl)oxy)pyridin-2-yl)amino)benzenesulfonamide] | > 100 | < 100 |
| CC(C)c1nc(-c2ccccc2)c(Oc2ccnc(Nc3cccc(S(N)(=O)=O)c3)c2)s1 [A-218, 3-((4-((2-Isopropyl-4-phenylthiazol-5-yl)oxy)pyridin-2-yl)amino)benzenesulfonamide] | > 100 | > 100 |
| CC(C)(O)c1cc(Nc2cc(Oc3sc(N)nc3-c3ccccc3)ccn2)ccn1 [A-42, 2-(4-((4-((2-Amino-4-phenylthiazol-5-yl)oxy)pyridin-2-yl)amino)pyridin-2-yl)propan-2-ol] | > 100 | < 100 |
| CNc1nc(-c2cccc(C)n2)c(Oc2ccnc(Nc3cccc(S(N)(=O)=O)c3)c2)s1 [A-292, 3-((4-((2-(Methylamino)-4-(6-methylpyridin-2-yl)thiazol-5-yl)oxy)pyridin-2-yl)amino)benzenesulfonamide] | < 100 | < 100 |
| Cc1nc(-c2ccccc2)c(Oc2ccnc(Nc3cccc(C(=O)O)c3)c2)s1 [A-109, 3-((4-((2-Methyl-4-phenylthiazol-5-yl)oxy)pyridin-2-yl)amino)benzoic acid] | > 100 | < 100 |
| Cc1nc(-c2ccccc2)c(Oc2ccnc(Nc3cccc(NS(=O)(=O)C(F)(F)F)c3)c2)s1 [A-107, 1,1,1-Trifluoro-N-(3-((4-((2-methyl-4-phenylthiazol-5-yl)oxy)pyridin-2-yl)amino)phenyl)methanesulfonamide] | < 100 | < 100 |
| CCc1nc(-c2cccc(C)n2)c(Oc2ccnc(Nc3cccc(C(=O)O)n3)c2)s1 [A-254, 6-((4-((2-Ethyl-4-(6-methylpyridin-2-yl)thiazol-5-yl)oxy)pyridin-2-yl)amino)picolinic acid] | < 100 | > 100 |
| Cc1cccc(-c2nc(C)sc2Oc2ccnc(Nc3cccc(C(C)(C)C(=O)O)c3)c2)n1 [A-309, 2-Methyl-2-(3-((4-((2-methyl-4-(6-methylpyridin-2-yl)thiazol-5-yl)oxy)pyridin-2-yl)amino)phenyl)propanoic acid] | < 100 | < 100 |

Now from value to compound:

| IC50 (TGF-β signaling) [nM] | IC50 (ALK5 kinase) [nM] | SMILES |
| --- | --- | --- |
| < 100 | < 100 | NC(=O)c1ccc(Nc2cc(Oc3sc(C4CC4)nc3-c3ccccc3)ccn2)cc1 [A-119, 4-((4-((2-Cyclopropyl-4-phenylthiazol-5-yl)oxy)pyridin-2-yl)amino)benzamide] |
| > 100 | > 100 | CC(C)c1nc(-c2ccccc2)c(Oc2ccnc(Nc3cccc(C(=O)O)n3)c2)s1 [A-217, 6-((4-((2-Isopropyl-4-phenylthiazol-5-yl)oxy)pyridin-2-yl)amino)picolinic acid] |
| > 100 | < 100 | Nc1nc(-c2ccccc2)c(Oc2ccnc(Nc3cccc(C(=O)O)c3)c2)s1 [A-40, 3-((4-((2-Amino-4-phenylthiazol-5-yl)oxy)pyridin-2-yl)amino)benzoic acid] |
| < 100 | < 100 | CS(=O)(=O)Nc1ccc(Nc2cc(Oc3sc(C4CC4)nc3-c3ccccc3)ccn2)cc1 [A-128, N-(4-((4-((2-Cyclopropyl-4-phenylthiazol-5-yl)oxy)pyridin-2-yl)amino)phenyl)methanesulfonamide] |
| > 100 | < 100 | CN(C)c1nc(-c2ccccc2)c(Oc2ccnc(Nc3cccc(C(=O)O)n3)c2)s1 [A-169, 6-((4-((2-(Dimethylamino)-4-phenylthiazol-5-yl)oxy)pyridin-2-yl)amino)picolinic acid] |
| > 100 | > 100 | NC(=O)c1cccc(Nc2cc(Oc3sc(Br)nc3-c3ccccc3)ccn2)c1 [A-172, 3-((4-((2-Bromo-4-phenylthiazol-5-yl)oxy)pyridin-2-yl)amino)benzamide] |
| < 100 | < 100 | NC(=O)c1cccc(Nc2cc(Oc3sc(C4CC4)nc3-c3ccccc3)ccn2)n1 [A-124, 6-((4-((2-Cyclopropyl-4-phenylthiazol-5-yl)oxy)pyridin-2-yl)amino)picolinamide] |
| > 100 | < 100 | O=C(O)c1ccc(Nc2cc(Oc3sc(C4CCCC4)nc3-c3ccccc3)ccn2)nc1 [A-174, 6-((4-((2-Cyclopentyl-4-phenylthiazol-5-yl)oxy)pyridin-2-yl)amino)nicotinic acid] |
| > 100 | < 100 | O=C(NO)c1ccc(Nc2cc(Oc3sc(C4CC4)nc3-c3ccccc3)ccn2)cc1 [A-139, 4-((4-((2-Cyclopropyl-4-phenylthiazol-5-yl)oxy)pyridin-2-yl)amino)-N-hydroxybenzamide] |
| < 100 | < 100 | NC(=O)c1cccc(Nc2cc(Oc3sc(N)nc3-c3ccccc3)ccn2)c1 [A-2, 3-((4-((2-Amino-4-phenylthiazol-5-yl)oxy)pyridin-2-yl)amino)benzamide] |
